Experimental data reported in PubChem BioAssay (NCI).
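Values below derive from 48-hour exposures of cells grown in 96-well plates, with endpoints linearly interpolated between the two concentrations bracketing the appropriate inhibition level. The concentration for 50% growth inhibition is given as GI50. TGI marks complete inhibition of growth.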

Tests used:
Test in all cases: NCI tumour cell line growth inhibition, 48 h
[1] = test system: MDA-MB-435
[2] = test system: NCI/ADR-RES ovarian
[3] = test system: PC-3 prostate
[4] = test system: KM12 colon
[5] = test system: HCT-116 colon
[6] = test system: NCI-H23 lung
[7] = test system: UACC-257 melanoma
[8] = test system: SN12C renal
[9] = test system: TK-10 renal
[10] = test system: HCC-2998 colon
[11] = test system: A549 NSCLC
[12] = test system: HL-60(TB) leukemia
[13] = test system: K-562 leukemia
[14] = test system: HOP-62 NSCLC
[15] = test system: 786-0 renal
[16] = test system: SNB-75 CNS
[17] = test system: LOX IMVI melanoma
[18] = test system: SR leukemia
[19] = test system: MALME-3M melanoma
[20] = test system: OVCAR-4 ovarian
[21] = test system: M14 melanoma
[22] = test system: SF-295 CNS
[23] = test system: NCI-H522 lung
[24] = test system: MDA-MB-231 breast
[25] = test system: RPMI-8226 leukemia
[26] = test system: SW-620 colon
[27] = test system: HCT-15 colon
[28] = test system: SF-539 CNS
[29] = test system: NCI-H460 lung
[30] = test system: RXF 393 renal
[31] = test system: UO-31 renal
[32] = test system: SK-OV-3 ovarian
[33] = test system: EKVX NSCLC
[34] = test system: UACC-62 melanoma
[35] = test system: HS 578T breast
[36] = test system: OVCAR-8 ovarian
[37] = test system: OVCAR-3 ovarian
[38] = test system: SK-MEL-5 melanoma
[39] = test system: CAKI-1 renal
[40] = test system: MOLT-4 leukemia
[41] = test system: ACHN renal
[42] = test system: U251 CNS
[43] = test system: COLO 205 colon
[44] = test system: NCI-H226 lung
[45] = test system: MCF7 breast
[46] = test system: BT-549 breast
[47] = test system: OVCAR-5 ovarian
[48] = test system: SK-MEL-28 melanoma
[49] = test system: SK-MEL-2 melanoma
[50] = test system: HOP-92 NSCLC
[51] = test system: A498 renal
[52] = test system: SNB-19 CNS
[53] = test system: SF-268 CNS
[54] = test system: IGROV1 ovarian
[55] = test system: HT29 colon
[56] = test system: T-47D breast
[57] = test system: DU-145 prostate
[58] = test system: CCRF-CEM leukemia
[59] = test system: MDA-N

CCc1ccc(C2=C(O)C(=O)C(c3ccc(CC)cc3)=C(O)C2=O)cc1
GI50 [1]: 1.89 µM | TGI [1]: 6.72 µM | GI50 [2]: 2.21 µM | TGI [2]: 5.86 µM | GI50 [3]: 2.17 µM | TGI [3]: 7.95 µM | GI50 [4]: 1.69 µM | TGI [4]: 4.04 µM | GI50 [5]: 2.24 µM | TGI [5]: 6 µM | GI50 [6]: 1.96 µM | TGI [6]: 5.23 µM | GI50 [7]: 2.95 µM | TGI [7]: 11.1 µM | GI50 [8]: 2.28 µM | TGI [8]: 9.79 µM | GI50 [9]: 2.26 µM | TGI [9]: 8.61 µM | GI50 [10]: 2.09 µM | TGI [10]: 5.75 µM | GI50 [11]: 2.74 µM | TGI [11]: 10.4 µM | GI50 [12]: 2.6 µM | TGI [12]: 6.24 µM | GI50 [13]: 1.34 µM | TGI [13]: 3.61 µM | GI50 [14]: 1.5 µM | TGI [14]: 3.42 µM | GI50 [15]: 1.57 µM | TGI [15]: 2.95 µM | GI50 [16]: 1.37 µM | TGI [16]: 4.19 µM | GI50 [17]: 2.84 µM | TGI [17]: 12.1 µM | GI50 [18]: 1.91 µM | TGI [18]: 5.07 µM | GI50 [19]: 1.28 µM | TGI [19]: 5.4 µM | GI50 [20]: 2.18 µM | TGI [20]: 7.75 µM | GI50 [21]: 1.74 µM | TGI [21]: 4.54 µM | GI50 [22]: 1.93 µM | TGI [22]: 6.7 µM | GI50 [23]: 1.51 µM | TGI [23]: 4.61 µM | GI50 [24]: 2.53 µM | TGI [24]: 11 µM | GI50 [25]: 1.81 µM | TGI [25]: 6.43 µM | GI50 [26]: 2.87 µM | TGI [26]: 10.4 µM | GI50 [27]: 2.23 µM | TGI [27]: 7.5 µM | GI50 [28]: 1.8 µM | TGI [28]: 4.45 µM | GI50 [29]: 2.06 µM | TGI [29]: 5 µM | GI50 [30]: 3.34 µM | TGI [30]: 12.8 µM | GI50 [31]: 1.73 µM | TGI [31]: 4.91 µM | GI50 [32]: 2.05 µM | TGI [32]: 5.66 µM | GI50 [33]: 2.35 µM | TGI [33]: 8.64 µM | GI50 [34]: 1.64 µM | TGI [34]: 3.63 µM | GI50 [35]: 1.72 µM | TGI [35]: 6.58 µM | GI50 [36]: 2.95 µM | TGI [36]: 10.2 µM | GI50 [37]: 1.57 µM | TGI [37]: 3.13 µM | GI50 [38]: 1.89 µM | TGI [38]: 3.86 µM | GI50 [39]: 1.92 µM | TGI [39]: 5.27 µM | GI50 [40]: 1.81 µM | TGI [40]: 4.15 µM | GI50 [41]: 2.01 µM | TGI [41]: 6.28 µM | GI50 [42]: 2.26 µM | TGI [42]: 10.1 µM | GI50 [43]: 1.69 µM | TGI [43]: 5.36 µM | GI50 [44]: 1.9 µM | TGI [44]: 7.34 µM | GI50 [45]: 1.83 µM | TGI [45]: 5.05 µM | GI50 [46]: 1.76 µM | TGI [46]: 5.62 µM | GI50 [47]: 1.61 µM | TGI [47]: 5.88 µM | GI50 [48]: 2.65 µM | TGI [48]: 8.89 µM | GI50 [49]: 1.18 µM | TGI [49]: 3.35 µM | GI50 [50]: 1.24 µM | TGI [50]: 4.33 µM | GI50 [51]: 1.74 µM | TGI [51]: 5.36 µM | GI50 [52]: 2.17 µM | TGI [52]: 8.03 µM | GI50 [53]: 2.14 µM | TGI [53]: 6.44 µM | GI50 [54]: 1.59 µM | TGI [54]: 3.54 µM | GI50 [55]: 2.34 µM | TGI [55]: 7.79 µM | GI50 [56]: 1.9 µM | TGI [56]: 6.65 µM | GI50 [57]: 2.81 µM | TGI [57]: 10.6 µM | GI50 [58]: 1.37 µM | TGI [58]: 5.72 µM

OC1CN=C2c3ccccc3C(O)(c3ccc(Cl)cc3)N2C1 (centres undefined)
TGI [1]: > 100 µM | TGI [2]: > 100 µM | TGI [3]: > 100 µM | TGI [4]: > 100 µM | TGI [5]: > 100 µM | TGI [6]: > 100 µM | TGI [8]: > 100 µM | TGI [9]: 65.7 µM | TGI [10]: 35.5 µM | TGI [11]: > 100 µM | TGI [12]: > 100 µM | TGI [13]: > 100 µM | TGI [14]: > 100 µM | TGI [15]: > 100 µM | TGI [16]: 91.9 µM | TGI [17]: > 100 µM | TGI [18]: > 100 µM | TGI [19]: > 100 µM | TGI [20]: > 100 µM | TGI [21]: 30.4 µM | TGI [23]: > 100 µM | TGI [24]: > 100 µM | TGI [25]: > 100 µM | TGI [26]: > 100 µM | TGI [28]: > 100 µM | TGI [29]: > 100 µM | TGI [30]: > 100 µM | TGI [31]: > 100 µM | TGI [32]: > 100 µM | TGI [33]: > 100 µM | TGI [34]: > 100 µM | TGI [35]: > 100 µM | TGI [36]: > 100 µM | TGI [37]: > 100 µM | TGI [39]: > 100 µM | TGI [40]: > 100 µM | TGI [41]: > 100 µM | TGI [42]: > 100 µM | TGI [43]: 37.8 µM | TGI [44]: > 100 µM | TGI [45]: > 100 µM | TGI [47]: > 100 µM | TGI [48]: > 100 µM | TGI [49]: > 100 µM | TGI [59]: > 100 µM | TGI [50]: 94.6 µM | TGI [52]: > 100 µM | TGI [53]: > 100 µM | TGI [54]: > 100 µM | TGI [55]: > 100 µM | TGI [56]: > 100 µM | TGI [57]: > 100 µM | TGI [58]: > 100 µM
